How the values were obtained:
[1] = target: PI3K-δ (PI3K(p1108/p857) (h)) (Homo sapiens, UniProt O00329); experiment: Evaluation of inhibitory activity against PI3K-δ (HTRF kinase assay); type: biochemical; details: for inhibition at 0.01 µM: compound concentration 0.01 μM, read-out: EXP_VALUE(% Inhibition) PI3K-δ 0.01 μM; for inhibition at 0.1 µM: compound concentration 0.1 μM, read-out: EXP_VALUE(% Inhibition) PI3K-δ 0.1 μM
Summary of the method: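 HTRF read-out (665/620 nm ratio ×10000) used Eu-labelled anti-GST, GST-tagged GRP1 PH domain and streptavidin-allophycocyanin after EDTA/PIP3 stop.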

[2] = target: DNA-PK(h) (Homo sapiens, UniProt P78527); experiment: Evaluation of inhibitory activity against DNA-PK (HTRF kinase assay, GST-cMyc-p53 substrate); type: biochemical; details: for inhibition at 0.01 µM: compound concentration 0.01 μM, read-out: EXP_VALUE(% Inhibition) DNA-PK(h) 0.01 μM; for inhibition at 0.1 µM: compound concentration 0.1 μM, read-out: EXP_VALUE(% Inhibition) DNA-PK(h) 0.1 μM
Summary of the method: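 p53 Ser15 phosphorylation by human DNA-PK was measured by time-resolved FRET ratio (665/620 nm ×10000) using Eu-labelled anti-phospho-Ser15 and d2 anti-GST antibodies. Substrate GST-cMyc-p53 at 50 μM; Mg/ATP-initiated, 30 min at room temperature, EDTA stop.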

PI3K-δ (PI3K(p1108/p857) (h)), sequence (O00329 whole entry, the tested form may be a part): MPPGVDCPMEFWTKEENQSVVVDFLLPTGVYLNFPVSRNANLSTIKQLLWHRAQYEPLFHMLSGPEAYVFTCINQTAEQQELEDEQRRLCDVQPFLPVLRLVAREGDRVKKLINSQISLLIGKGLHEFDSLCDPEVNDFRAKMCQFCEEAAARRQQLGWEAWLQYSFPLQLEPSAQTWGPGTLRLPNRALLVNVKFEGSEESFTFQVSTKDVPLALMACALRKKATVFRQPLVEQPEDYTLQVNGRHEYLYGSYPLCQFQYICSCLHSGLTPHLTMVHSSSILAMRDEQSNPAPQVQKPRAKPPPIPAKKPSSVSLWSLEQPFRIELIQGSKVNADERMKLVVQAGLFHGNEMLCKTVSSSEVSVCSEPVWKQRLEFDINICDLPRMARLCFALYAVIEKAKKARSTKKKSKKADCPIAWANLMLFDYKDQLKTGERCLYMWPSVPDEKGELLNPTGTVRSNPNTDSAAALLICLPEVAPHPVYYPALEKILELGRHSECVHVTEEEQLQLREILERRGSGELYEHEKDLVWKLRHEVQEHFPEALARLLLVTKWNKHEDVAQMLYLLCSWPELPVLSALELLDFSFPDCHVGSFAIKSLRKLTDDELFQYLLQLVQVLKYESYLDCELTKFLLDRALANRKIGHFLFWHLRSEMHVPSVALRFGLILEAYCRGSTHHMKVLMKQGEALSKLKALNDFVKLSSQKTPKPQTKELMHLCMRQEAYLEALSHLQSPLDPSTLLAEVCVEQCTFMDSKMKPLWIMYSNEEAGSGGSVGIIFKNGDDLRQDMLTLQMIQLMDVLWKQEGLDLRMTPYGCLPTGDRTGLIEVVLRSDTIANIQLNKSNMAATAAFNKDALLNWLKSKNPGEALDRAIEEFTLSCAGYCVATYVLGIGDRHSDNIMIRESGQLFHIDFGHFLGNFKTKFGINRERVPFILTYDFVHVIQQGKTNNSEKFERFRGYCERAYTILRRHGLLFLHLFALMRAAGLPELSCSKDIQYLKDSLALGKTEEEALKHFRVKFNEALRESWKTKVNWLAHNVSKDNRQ
PI3K-δ (PI3K(p1108/p857) (h)), sequence (P27986 whole entry partner, the tested form may be a part): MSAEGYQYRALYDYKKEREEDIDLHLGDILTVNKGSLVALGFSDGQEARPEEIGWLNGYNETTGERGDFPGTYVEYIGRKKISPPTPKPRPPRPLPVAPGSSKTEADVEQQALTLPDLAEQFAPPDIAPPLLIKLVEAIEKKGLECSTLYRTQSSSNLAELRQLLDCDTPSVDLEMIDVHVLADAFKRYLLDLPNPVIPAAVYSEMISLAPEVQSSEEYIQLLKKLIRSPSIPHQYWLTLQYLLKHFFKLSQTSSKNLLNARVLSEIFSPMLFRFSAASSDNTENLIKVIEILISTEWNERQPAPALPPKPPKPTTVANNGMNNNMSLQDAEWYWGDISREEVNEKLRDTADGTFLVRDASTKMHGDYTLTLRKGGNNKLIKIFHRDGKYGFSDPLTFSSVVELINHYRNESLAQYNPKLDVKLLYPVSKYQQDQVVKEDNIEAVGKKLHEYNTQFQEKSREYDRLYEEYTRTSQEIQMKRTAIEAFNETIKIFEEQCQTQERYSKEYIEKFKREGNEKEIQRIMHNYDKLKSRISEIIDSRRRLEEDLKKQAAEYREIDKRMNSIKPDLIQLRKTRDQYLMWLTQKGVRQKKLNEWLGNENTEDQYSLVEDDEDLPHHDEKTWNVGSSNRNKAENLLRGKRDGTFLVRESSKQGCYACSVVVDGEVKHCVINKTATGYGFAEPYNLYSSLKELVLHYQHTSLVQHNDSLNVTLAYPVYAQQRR

SMILES	inhibition at 0.01 µM [1] [%]	inhibition at 0.1 µM [1] [%]	inhibition at 0.01 µM [2] [%]	inhibition at 0.1 µM [2] [%]
C[C@H](Nc1ncnc2[nH]ccc(=O)c12)c1c(Cl)c2cccc(-c3ccc(C4CC4)cc3)c2c(=O)n1-c1ccccc1 [Example 141, (S)-4-((1-(4-chloro-8-(4-cyclopropylphenyl)-1-oxo-2-phenyl-1,2-dihydroisoquinolin-3-yl)ethyl)amino)pyrido[2,3-d]pyrimidin-5(8H)-one]	39	79	31	74
C=Cc1cccc2c(Cl)c([C@H](C)Nc3ncnc4[nH]ccc(=O)c34)n(-c3ccccc3)c(=O)c12 [Example 142, (S)-4-((1-(4-chloro-1-oxo-2-phenyl-8-vinyl-1,2-dihydroisoquinolin-3-yl)ethyl)amino)pyrido[2,3-d]pyrimidin-5(8H)-one]	67	97	50	87
C[C@H](Nc1ncnc2[nH]ccc(=O)c12)c1c(Cl)c2cccc(-c3ccc(SC(C)(C)C)cc3)c2c(=O)n1-c1ccccc1 [Example 144, (S)-4-((1-(8-(4-(tert-butylthio)phenyl)-4-chloro-1-oxo-2-phenyl-1,2-dihydroisoquinolin-3-yl)ethyl)amino)pyrido[2,3-d]pyrimidin-5(8H)-one]	17	72	4	48
C[C@H](Nc1ncnc2[nH]ccc(=O)c12)c1c(Cl)c2cccc(-c3ccc(C(=O)N4CCOCC4)cc3)c2c(=O)n1-c1ccccc1 [Example 145, (S)-4-((1-(4-chloro-8-(4-(morpholin-4-carbonyl)phenyl)-1-oxo-2-phenyl-1,2-dihydroisoquinolin-3-yl)ethyl)amino)pyrido[2,3-d]pyrimidin-5(8H)-one]	88	–	93	–
C[C@H](Nc1ncnc2[nH]ccc(=O)c12)c1c(Cl)c2cccc(-c3cnc(OCc4ccccc4)nc3)c2c(=O)n1-c1ccccc1 [Example 146, (S)-4-((1-(8-(2-(benzyloxy)pyrimidin-5-yl)-4-chloro-1-oxo-2-phenyl-1,2-dihydroisoquinolin-3-yl)ethyl)amino)pyrido[2,3-d]pyrimidin-5(8H)-one]	84	–	35	–
C[C@H](Nc1ncnc2[nH]ccc(=O)c12)c1c(Cl)c2cccc(-c3ccc(OCC(F)(F)F)nc3)c2c(=O)n1-c1ccccc1 [Example 147, (S)-4-((1-(4-chloro-1-oxo-2-phenyl-8-(6-(2,2,2-trifluoroethoxy)pyridin-3-yl)-1,2-dihydroisoquinolin-3-yl)ethyl)amino)pyrido[2,3-d]pyrimidin-5(8H)-one]	69	–	48	–
C[C@H](Nc1ncnc2[nH]ccc(=O)c12)c1c(Cl)c2cccc(-c3ccc(N4CCNCC4)cc3)c2c(=O)n1-c1ccccc1 [Example 148, (S)-4-((1-(4-chloro-1-oxo-2-phenyl-8-(4-(piperazin-1-yl)phenyl)-1,2-dihydroisoquinolin-3-yl)ethyl)amino)pyrido[2,3-d]pyrimidin-5(8H)-one]	92	–	89	–
COc1cc(-c2cccc3c(Cl)c([C@H](C)Nc4ncnc5c4c(=O)ccn5-c4ccnc(OC)c4)n(-c4ccccc4)c(=O)c23)ccn1 [Example 149, (S)-4-((1-(4-chloro-8-(2-methoxypyridin-4-yl)-1-oxo-2-phenyl-1,2-dihydroisoquinolin-3-yl)ethyl)amino)-8-(2-methoxypyridin-4-yl)pyrido[2,3-d]pyrimidin-5(8H)-one]	2	–	7	–
CCCSc1ccc(-c2cccc3c(Cl)c([C@H](C)Nc4ncnc5[nH]ccc(=O)c45)n(-c4ccccc4)c(=O)c23)cc1 [Example 151, (S)-4-((1-(4-chloro-1-oxo-2-phenyl-8-(4-(propylthio)phenyl)-1,2-dihydroisoquinolin-3-yl)ethyl)amino)pyrido[2,3-d]pyrimidin-5(8H)-one]	44	–	23	–
C[C@H](Nc1ncnc2[nH]ccc(=O)c12)c1c(Cl)c2cccc(-c3ccc(SC4CC4)cc3)c2c(=O)n1-c1ccccc1 [Example 152, (S)-4-((1-(4-chloro-8-(4-(cyclopropylthio)phenyl)-1-oxo-2-phenyl-1,2-dihydroisoquinolin-3-yl)ethyl)amino)pyrido[2,3-d]pyrimidin-5(8H)-one]	58	–	36	–
C[C@H](Nc1ncnc2[nH]ccc(=O)c12)c1c(Cl)c2cccc(-c3cnc(C(F)(F)F)nc3)c2c(=O)n1-c1ccccc1 [Example 153, (S)-4-((1-(4-chloro-1-oxo-2-phenyl-8-(2-(trifluoromethyl)pyrimidin-5-yl)-1,2-dihydroisoquinolin-3-yl)ethyl)amino)pyrido[2,3-d]pyrimidin-5(8H)-one]	77	–	46	–
C[C@H](Nc1ncnc2[nH]ccc(=O)c12)c1c(Cl)c2cccc(C3=CCCC3)c2c(=O)n1-c1ccccc1 [Example 156, (S)-4-((1-(4-chloro-8-(cyclopent-1-en-1-yl)-1-oxo-2-phenyl-1,2-dihydroisoquinolin-3-yl)ethyl)amino)pyrido[2,3-d]pyrimidin-5(8H)-one]	82	–	42	–
COc1cc(OC(F)(F)F)cc(-c2cccc3c(Cl)c([C@H](C)Nc4ncnc5[nH]ccc(=O)c45)n(-c4ccccc4)c(=O)c23)c1 [Example 158, (S)-4-((1-(4-chloro-8-(3-methoxy-5-(trifluoromethoxy)phenyl)-1-oxo-2-phenyl-1,2-dihydroisoquinolin-3-yl)ethyl)amino)pyrido[2,3-d]pyrimidin-5(8H)-one]	32	–	18	–
Cc1nc(-c2ccc(-c3cccc4c(Cl)c([C@H](C)Nc5ncnc6[nH]ccc(=O)c56)n(-c5ccccc5)c(=O)c34)cc2)no1 [Example 160, (S)-4-((1-(4-chloro-8-(4-(5-methyl-1,2,4-oxadiazol-3-yl)phenyl)-1-oxo-2-phenyl-1,2-dihydroisoquinolin-3-yl)ethyl)amino)pyrido[2,3-d]pyrimidin-5(8H)-one]	94	–	74	–

Next, values leading:

inhibition at 0.01 µM [1] [%]	inhibition at 0.1 µM [1] [%]	inhibition at 0.01 µM [2] [%]	inhibition at 0.1 µM [2] [%]	SMILES
42	87	38	84	C[C@H](Nc1ncnc2[nH]ccc(=O)c12)c1c(Cl)c2cccc(-c3cc(Cl)ccc3F)c2c(=O)n1-c1ccccc1 [Example 140, (S)-4-((1-(4-chloro-8-(5-chloro-2-fluorophenyl)-1-oxo-2-phenyl-1,2-dihydroisoquinolin-3-yl)ethyl)amino)pyrido[2,3-d]pyrimidin-5(8H)-one]
48	94	25	80	CSc1ccc(-c2cccc3c(Cl)c([C@H](C)Nc4ncnc5[nH]ccc(=O)c45)n(-c4ccccc4)c(=O)c23)cc1 [Example 143, (S)-4-((1-(4-chloro-8-(4-(methylthio)phenyl)-1-oxo-2-phenyl-1,2-dihydroisoquinolin-3-yl)ethyl)amino)pyrido[2,3-d]pyrimidin-5(8H)-one]
105	–	93	–	COc1cc(-c2cccc3c(Cl)c([C@H](C)Nc4ncnc5[nH]ccc(=O)c45)n(-c4ccccc4)c(=O)c23)ccn1 [Example 150, (S)-4-((1-(4-chloro-8-(2-methoxypyridin-4-yl)-1-oxo-2-phenyl-1,2-dihydroisoquinolin-3-yl)ethyl)amino)pyrido[2,3-d]pyrimidin-5(8H)-one]
89	–	71	–	COc1cc(-c2cccc3c(Cl)c([C@H](C)Nc4ncnc5[nH]ccc(=O)c45)n(-c4ccccc4)c(=O)c23)cc(OC)c1F [Example 154, (S)-4-((1-(4-chloro-8-(4-fluoro-3,5-dimethoxyphenyl)-1-oxo-2-phenyl-1,2-dihydroisoquinolin-3-yl)ethyl)amino)pyrido[2,3-d]pyrimidin-5(8H)-one]
95	–	87	–	COc1ccc(-c2cccc3c(Cl)c([C@H](C)Nc4ncnc5[nH]ccc(=O)c45)n(-c4ccccc4)c(=O)c23)cc1OC [Example 155, (S)-4-((1-(4-chloro-8-(3,4-dimethoxyphenyl)-1-oxo-2-phenyl-1,2-dihydroisoquinolin-3-yl)ethyl)amino)pyrido[2,3-d]pyrimidin-5(8H)-one]
57	–	52	–	COc1cc(OC(C)C)cc(-c2cccc3c(Cl)c([C@H](C)Nc4ncnc5[nH]ccc(=O)c45)n(-c4ccccc4)c(=O)c23)c1 [Example 157, (S)-4-((1-(4-chloro-8-(3-isopropoxy-5-methoxyphenyl)-1-oxo-2-phenyl-1,2-dihydroisoquinolin-3-yl)ethyl)amino)pyrido[2,3-d]pyrimidin-5(8H)-one]
28	–	19	–	COc1cc(-c2cccc3c(Cl)c([C@H](C)Nc4ncnc5[nH]ccc(=O)c45)n(-c4ccccc4)c(=O)c23)ccc1OC(F)(F)F [Example 159, (S)-4-((1-(4-chloro-8-(3-methoxy-4-(trifluoromethoxy)phenyl)-1-oxo-2-phenyl-1,2-dihydroisoquinolin-3-yl)ethyl)amino)pyrido[2,3-d]pyrimidin-5(8H)-one]
